RP-LC retention time data for 78 compounds are collected here from the METLIN SMRT retention time set (Domingo-Almenara et al. 2019).

A short description of the series: gradient 5% acetonitrile 3 min, to 50% in 2 min, to 85% in 15 min, held 3 min, 100 µL/min. The note with it: column: Zorbax Extend-C18 2.1 x 50 mm; eluents: water / acetonitrile, 0.1% formic acid. In outline: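 Using water and acetonitrile that each contained 0.1% formic acid, mixtures of ~100 pure standards were separated at 100 μL/min on a Zorbax Extend-C18 column (2.1 × 50 mm, 1.8 μm). The HPLC fed a quadrupole time-of-flight mass spectrometer working in positive and negative ionization mode, with dead and dwell volumes of 40 μL and 900 μL. Data were acquired over 3 months. Retention time was read from computationally picked adduct peaks after manual inspection of each.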
The compound `Cn1c(CN2CCN(C(=O)c3ccco3)CC2)nc2cc(NC(=O)c3ccco3)ccc21` returned an RP-LC retention time of 607 s.

The compound `COc1cc(C(=O)NCCc2c[nH]c3ccc(C)cc23)cc(OC)c1OC` came in with an RP-LC retention time of 814 s.

Turning to `CCOC(=O)CCNC(=O)N1[C@H]2CC[C@@H]1c1cnc(-c3ccccc3)nc1C2`, the RP-LC retention time amounted to 794 s.

For `COc1ccc(CNC(=O)c2nnn(Cc3nc(-c4ccc(C)cc4)oc3C)c2N)cc1OC`, the RP-LC retention time was 935 s.

`O=C(C1CCC1)N1CCCC1c1nc(-c2cccc(Cl)c2)no1` (stereo not drawn) showed an RP-LC retention time of 1060 s.

As to `Cc1ccc(C(=O)NCCc2sccc2C)cc1NC1=NC2CS(=O)(=O)CC2S1` (stereo not drawn), the RP-LC retention time was 685 s.

In turn, `Cc1oc(-c2ccc(C(=O)N3CCN(C)CC3)cc2)nc1CN1CCc2ccccc21` had an RP-LC retention time of 675 s.

With `O=S(=O)(c1cccc2nsnc12)N1CCCn2nc(-c3cccnc3)cc2C1`, the RP-LC retention time came to 627 s.

For the compound `O=C(Nc1ccc2c(c1)N(S(=O)(=O)c1ccc(F)cc1)CCC2)C1CC1`, the RP-LC retention time is 852 s.

Compound `Cc1ccc(NC(=O)C2=C(Nc3ccc4c(c3)n(C)c(=O)n4C)c3ccccc3S2(=O)=O)cc1` had an RP-LC retention time of 902 s.

Compound `CCc1noc(NC(C)=O)c1-c1ccc(OC)c(S(=O)(=O)N2CCC3(CC2)OCCO3)c1` displayed an RP-LC retention time of 714 s.

In turn, `CC(C)Cc1csc(-c2csc(S(=O)(=O)Nc3cccc(Cl)c3)c2)n1` yielded an RP-LC retention time of 1230 s.

On to `Cc1ccc2c(c1)C(C)(C)C(=O)N2CC(=O)N1CCCCC1`, for which the RP-LC retention time is 860 s.

On to `O=C(NCC1CCN(C(=O)Oc2ccccc2)CC1)Nc1ccccc1Cl`, for which the RP-LC retention time came to 881 s.

The compound `CCn1c(=O)c(N2CCN(C(=O)Nc3cc(C)ccc3C)CC2)nc2ccccc21` registered an RP-LC retention time of 984 s.

In turn, `Cc1c(C2CCN(C(=O)c3ccc(Br)cc3)CC2)noc1N` gave an RP-LC retention time of 728 s.

`CC(=O)N1CCc2ccccc2C1C(=O)NCc1ccccc1C` (stereo not drawn) yielded an RP-LC retention time of 788 s.

For the compound `CC(C)n1nc(CNC(=O)c2ccccn2)c2ccccc21`, the RP-LC retention time came out at 874 s.

For `O=C(CC1CCN(C(=O)Nc2ccccc2)CC1)N1CCN(c2ccccn2)CC1`, the RP-LC retention time was determined as 603 s.

On to `O=C(c1ccc2c(c1)OCO2)N1CCN(c2ncnc3c2CCC3)CC1`, for which the RP-LC retention time was found to be 588 s.

`CCNC(=O)Nc1ccc(OCC(=O)NC(C)c2ccc(OC)cc2)nc1` (stereo not drawn) returned an RP-LC retention time of 701 s.

Compound `CC1CCC(NC(=O)C2CCN(C(=O)c3ncn4c3COC(c3ccc(F)cc3)C4)CC2)CC1` (stereo not drawn) displayed an RP-LC retention time of 826 s.

In the case of `CCc1ccc(NC(=O)Cn2nc(N3CCSCC3)c3ccccc3c2=O)cc1`, the RP-LC retention time came out at 1040 s.

For the compound `Cc1noc2nc(CCC(=O)NC(C)c3ccccc3)nc(N3CCCC3)c12` (stereo not drawn), the RP-LC retention time was 790 s.

`CCC(C)NC(=O)c1nccnc1NC(=O)c1ccc(C)cc1` (stereo not drawn) gave an RP-LC retention time of 990 s.

As for `O=C(c1cccc(Br)c1)N1CCN(c2cc(-c3ccccc3)[nH]n2)CC1`, the RP-LC retention time came to 852 s.

For `CN1CCCc2cc(C(=O)NCc3ccccc3Cl)sc21`, the RP-LC retention time turned out to be 964 s.

`Cc1ccc(NC(=O)N2CCCC(Cn3cnc4cccnc43)C2)c(C)c1` (stereo not drawn) gave an RP-LC retention time of 680 s.

For `O=C(c1cn2ccnc(-c3ccc(F)cc3)c2n1)N1CCN(C(=O)c2ccco2)CC1`, the RP-LC retention time turned out to be 693 s.

`CC1=C(c2cccc(Cl)c2)S(=O)(=O)N=C1N1CCCN(C(=O)c2ccsc2)CC1` returned an RP-LC retention time of 851 s.

On to `CC(C)C(=O)Nc1cc(-c2ccccc2)nn(C(C)C(=O)Nc2ccccc2Cl)c1=O` (stereo not drawn), for which the RP-LC retention time amounted to 1170 s.

`COc1ccc(-n2cc(C(=O)N3CCC(C(N)=O)CC3)nn2)cc1` displayed an RP-LC retention time of 612 s.

Regarding `CCCNC(=O)c1cc2c(s1)N(CC1CC1)CCCC2`, the RP-LC retention time turned out to be 1020 s.

`Cn1cc(S(=O)(=O)N2CCC(C(=O)NC3CCCCCC3)CC2)cc1C(=O)N1CCCC1` gave an RP-LC retention time of 770 s.

Consider `COc1ccc2[nH]cc(CCNC(=O)CCc3c(C)nc4c(c3C)c(=O)n(C)c(=O)n4C)c2c1`, for which the RP-LC retention time stood at 788 s.

`CC(NC(=O)Cn1cnc(-c2noc(-c3cccnc3)n2)c1)c1ccccc1` (stereo not drawn) returned an RP-LC retention time of 823 s.

`COc1ccc(Nc2ncc(C(=O)O)c3ccccc23)cc1`: the RP-LC retention time was found to be 599 s.

With `O=C(NCC1CCN(C(=O)c2cc3ccccc3o2)CC1)Nc1c(F)cccc1F`, the RP-LC retention time is 729 s.

Take `CCCCOc1ccc(CNC(=O)CN2CC=C(c3cnn(-c4ccccc4)c3)CC2)cc1`: the RP-LC retention time was determined as 826 s.

The compound `Nc1cccc(-c2ccc(N3CCOCC3)nn2)c1` yielded an RP-LC retention time of 546 s.

Take `Cc1cc(N2CCCC2)nc(N2CCN(C(=O)c3ccc(C(C)(C)C)cc3)CC2)n1`: the RP-LC retention time came to 813 s.

`CCCN(CC1CCOC1)S(=O)(=O)c1cc(F)ccc1C` (stereo not drawn) displayed an RP-LC retention time of 943 s.

`CC(C)n1cnc(S(=O)(=O)N2CCC(C(=O)NCc3ccccc3)CC2)c1` yielded an RP-LC retention time of 712 s.

In turn, `COc1cccc(-n2c(=O)c3sccc3n(Cc3nc(-c4ccc(OC(C)C)cc4)no3)c2=O)c1` showed an RP-LC retention time of 1080 s.

The compound `CC(C)c1ccc(-c2nc(C3CC(=O)N(c4ccc(Cl)cc4)C3)no2)cc1` (stereo not drawn) returned an RP-LC retention time of 1300 s.

Turning to `Cc1csc(-c2cc(S(=O)(=O)NC3CCCC3)c(C)n2C)n1`, the RP-LC retention time amounted to 970 s.

Compound `CC(C)CN1CCn2cc(S(=O)(=O)NCc3ccc(F)c(Cl)c3)cc2C1=O` yielded an RP-LC retention time of 855 s.

As to `Cc1cc(C)cc(-n2c(CN3CCN(C(=O)Nc4ccc5c(c4)OCO5)CC3)nc3cccnc32)c1`, the RP-LC retention time was determined as 676 s.

`CCc1ccccc1N(C)C(=O)c1cc2c(=O)n(CC)c3ccccc3n2n1` had an RP-LC retention time of 1010 s.

The compound `Cc1ccc(C(=O)N2CCCn3nc(-c4ccc(Cl)cc4)cc3C2)s1` showed an RP-LC retention time of 931 s.

Compound `CC1Oc2ccc(S(=O)(=O)N3CCC(C(=O)NCc4ccc(F)cc4)CC3)cc2NC1=O` (stereo not drawn) yielded an RP-LC retention time of 812 s.

For the compound `CCCn1cc(CCNC(=O)Nc2ccc(C)cc2C)c2cccnc21`, the RP-LC retention time came out at 781 s.

In turn, `Cc1ccc(NC(=O)N2CCc3nc(-c4ccc(F)cc4)ncc3C2)cc1C` came in with an RP-LC retention time of 1020 s.

Take `CCN(CC)CCNC(=O)C1(O)c2cc(Br)ccc2NC(=O)N1c1cccc(OC)c1` (stereo not drawn): the RP-LC retention time amounted to 590 s.

`COc1cc(CNC(=O)c2nc(CCS(=O)(=O)c3ccc(C)cc3)no2)cc(OC)c1OC` had an RP-LC retention time of 825 s.

For the compound `O=C(Cn1nc2n(c1=O)CCCC2)NCc1ccc(F)cc1`, the RP-LC retention time stood at 642 s.

Compound `CCn1cc(-c2nc(C(=O)Nc3cc(F)ccc3Cl)cs2)c2cccnc21` returned an RP-LC retention time of 1330 s.

With `CC(C)Cn1cc(CCNC(=O)c2cc(F)ccc2F)c2cccnc21`, the RP-LC retention time came to 868 s.

On to `CC1=C(c2ccccc2)S(=O)(=O)N=C1N1CCCN(C(=O)C2CCCC2)CC1`, for which the RP-LC retention time turned out to be 814 s.

Compound `Cc1oc(-c2[nH]ncc2C(=O)N(C)C)cc1S(=O)(=O)NCCN1CCOCC1` registered an RP-LC retention time of 543 s.

Regarding `CCc1cc(C(=O)N2CCN(c3ccccn3)CC2)nc2cc(-c3cccs3)nn12`, the RP-LC retention time was 706 s.

`Cc1ccc(-c2cc3c(=O)n(Cc4noc(CN5CCN(C(C)C)CC5)n4)ccn3n2)cc1` had an RP-LC retention time of 665 s.

In turn, `O=C(Nc1ccc2c(c1)CCCN2C(=O)c1ccco1)c1ccccc1C(F)(F)F` came in with an RP-LC retention time of 792 s.

The compound `COc1ccccc1Oc1ccc(S(=O)(=O)Nc2cccc(C(C)=O)c2)cc1` registered an RP-LC retention time of 887 s.

In turn, `Cc1nc(-c2ccccc2)sc1C(=O)N1CCN(c2ccc(-n3ccnc3C)nn2)CC1` registered an RP-LC retention time of 572 s.

In the case of `Cn1cc(C(=O)C(=O)NC2CCCCC2)c2ccccc21`, the RP-LC retention time worked out at 1070 s.

`Cn1nc(C(=O)N2CCCC2)c2c1CCN(C(=O)Nc1cc(F)ccc1F)C2` had an RP-LC retention time of 728 s.

Compound `CC(CNC(=O)c1nc(Cn2c(=O)oc3ccccc32)no1)c1ccccc1` (stereo not drawn) returned an RP-LC retention time of 932 s.

Turning to `CCn1c(C)c(CN2CCC(C(=O)N3CCN(c4ccccc4F)CC3)CC2)c2ccccc21`, the RP-LC retention time was found to be 729 s.

`COc1ccc(OCC(=O)N2CCCCC2CCN2CCOCC2)cc1` (stereo not drawn) registered an RP-LC retention time of 601 s.

In the case of `CC1(C(=O)NCc2ccccc2)CCCN(C(=O)NCCc2ccccc2)C1` (stereo not drawn), the RP-LC retention time came to 840 s.

`Ic1ccccc1CNC1C2CCN(CC2)C1C(c1ccccc1)c1ccccc1` (stereo not drawn) returned an RP-LC retention time of 982 s.

For `CCOc1ccc(NC(=O)Nc2nccn(-c3ccc(C(C)C)cc3)c2=O)cc1`, the RP-LC retention time was 1160 s.

Take `Cc1cc(N2CCCCC2)nc(NCCNC(=O)Cc2noc3ccccc23)n1`: the RP-LC retention time turned out to be 580 s.

For `Cc1cc(C)c2c(N3CCCCC3)nc(C(=O)NCC3CCCO3)nc2n1` (stereo not drawn), the RP-LC retention time turned out to be 621 s.

As to `CC(C)NC(=O)C1CCCN(c2nc3ncn(CC(=O)NCc4ccc(F)cc4)c(=O)c3s2)C1` (stereo not drawn), the RP-LC retention time stood at 689 s.

`COCCNc1c(-c2cccc(OC)c2)nc2sc(C(=O)N(C)C)c(C)n12` registered an RP-LC retention time of 698 s.

For `COc1ccc(NC(=O)CSc2ccc(N3CCCC(C(=O)NC4CC4)C3)nn2)cc1Cl` (stereo not drawn), the RP-LC retention time amounted to 624 s.
